Reference: PMC3949708, “Identification and Biosynthesis of a Novel Xanthomonadin-Dialkylresorcinol-Hybrid from Azoarcus sp. BH72” (PLoS ONE, 2014)

What was measured:
ArcB = target: T1, ArcB (Azoarcus olearius, UniProt A1KCI0); assay: GC-MS product detection after MSTFA derivatization; format: biochemical; settings: 1 mM substrate, 2 µg ArcB, 100 mM Tris pH 7.4, 37 °C, 10 or 60 min
T1 construct: gene azo3920; full gene; CherryTag-His6 fusion cut off with TEV protease; E. coli BL21 (DE3) Star

ArcT = target: T2, ArcT (Azoarcus olearius, UniProt A1K222); assay: MALDI-MS ATP-pyrophosphate isotopic exchange; format: biochemical; settings: MgCl2, pyrophosphate, 20 mM Tris pH 7.4
T2 construct: gene azo0260; full gene; CherryTag-His6 fusion cut off with TEV protease; E. coli BL21 (DE3) Star
T2 sequence (A1K222 entry or part of it): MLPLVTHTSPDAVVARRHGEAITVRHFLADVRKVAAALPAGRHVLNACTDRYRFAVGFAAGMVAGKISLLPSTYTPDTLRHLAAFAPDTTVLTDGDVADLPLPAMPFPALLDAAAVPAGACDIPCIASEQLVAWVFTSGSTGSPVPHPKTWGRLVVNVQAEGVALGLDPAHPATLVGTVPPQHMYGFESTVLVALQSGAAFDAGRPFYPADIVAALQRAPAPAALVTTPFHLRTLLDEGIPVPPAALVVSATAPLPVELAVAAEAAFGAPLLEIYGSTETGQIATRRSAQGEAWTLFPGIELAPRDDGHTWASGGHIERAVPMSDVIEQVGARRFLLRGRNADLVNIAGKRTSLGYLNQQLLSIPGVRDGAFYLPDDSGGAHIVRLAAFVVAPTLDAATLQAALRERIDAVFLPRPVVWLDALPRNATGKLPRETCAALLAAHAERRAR

T1 sequence (A1KCI0 entry or part of it): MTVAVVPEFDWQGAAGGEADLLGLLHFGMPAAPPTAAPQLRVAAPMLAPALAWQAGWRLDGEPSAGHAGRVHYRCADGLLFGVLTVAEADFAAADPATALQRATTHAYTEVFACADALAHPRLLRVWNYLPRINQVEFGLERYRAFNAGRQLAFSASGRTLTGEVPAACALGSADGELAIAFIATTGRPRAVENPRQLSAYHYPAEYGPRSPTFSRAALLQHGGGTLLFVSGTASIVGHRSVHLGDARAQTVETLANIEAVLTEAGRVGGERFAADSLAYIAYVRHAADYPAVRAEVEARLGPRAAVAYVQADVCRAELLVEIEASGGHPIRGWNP

O=C(O)c1cccc(O)c1 [3-hydroxybenzoic acid]
GC-MS product detection after MSTFA derivatization (ArcB; formed from chorismic acid): 3-HBA was only detectable in assays containing ArcB | MALDI-MS ATP-pyrophosphate isotopic exchange (ArcT; adenylation, [γ-18O4]-ATP): MALDI-MS analysis showed ATP-label exchange in assays with 3-HBA

C=C(O[C@@H]1C=C(C(=O)O)C=C[C@H]1O)C(=O)O [chorismic acid]
GC-MS product detection after MSTFA derivatization (ArcB): 3-HBA was only detectable in assays containing ArcB

Nc1ncnc2c1ncn2[C@@H]1O[C@H](COP(=O)(O)OP(=O)(O)OP(=O)(O)O)[C@@H](O)[C@H]1O [[γ-^18O4]-ATP]
MALDI-MS ATP-pyrophosphate isotopic exchange (ArcT; 3-HBA as co-substrate, labelled compound): MALDI-MS analysis showed ATP-label exchange in assays with 3-HBA
